Assay results taken from patent US12157741B2, “Macrocyclic inhibitors of DYRK1A” (DANA-FARBER CANCER INSTITUTE, INC., priority 2018, dated 2024).
Where two headings read alike, the source gives them in different places.

How the values were obtained:
Type in all cases: binding
[1] = target: various enzymes (Homo sapiens, UniProt Q07002); conditions: compound 1 uM
Protocol: (§1) Ambit profiling was conducted in accordance with the manufacturer's instructions.

[2] = target: T1, various enzymes (Homo sapiens, UniProt Q9NWZ3); conditions: compound 1 uM
T1 sequence (Q9NWZ3 1-460): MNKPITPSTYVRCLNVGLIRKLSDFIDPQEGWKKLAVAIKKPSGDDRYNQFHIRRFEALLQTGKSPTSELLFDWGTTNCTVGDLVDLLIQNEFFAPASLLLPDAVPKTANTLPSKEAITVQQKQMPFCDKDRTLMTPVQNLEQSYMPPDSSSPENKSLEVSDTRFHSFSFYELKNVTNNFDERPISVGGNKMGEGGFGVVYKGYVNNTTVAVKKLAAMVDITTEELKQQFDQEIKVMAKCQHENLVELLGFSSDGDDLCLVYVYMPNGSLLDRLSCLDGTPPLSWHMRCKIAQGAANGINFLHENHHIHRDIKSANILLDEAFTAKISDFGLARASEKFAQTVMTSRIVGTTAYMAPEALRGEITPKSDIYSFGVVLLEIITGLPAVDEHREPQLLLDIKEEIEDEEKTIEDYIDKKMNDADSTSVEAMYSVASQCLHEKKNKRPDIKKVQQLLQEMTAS
Protocol: as §1

[3] = target: various enzymes (Homo sapiens, UniProt Q9NY57); conditions: compound 1 uM
Protocol: as §1

[4] = target: various enzymes (Homo sapiens, UniProt P00533, L858R)
Protocol: as §1

[5] = target: various enzymes (Homo sapiens, UniProt P11802); conditions: compound 1 uM
Protocol: as §1

[6] = target: various enzymes (Homo sapiens, UniProt P07332); conditions: compound 1 uM
Protocol: as §1

[7] = target: various enzymes (Homo sapiens, UniProt Q9Y4K4); conditions: compound 1 uM
Protocol: as §1

[8] = target: various enzymes (Homo sapiens, UniProt P78368); conditions: compound 1 uM
Protocol: as §1

[9] = target: various enzymes (Homo sapiens, UniProt Q13131); conditions: compound 1 uM
Protocol: as §1

[10] = target: various enzymes (Homo sapiens, UniProt P00533, G719C)
Protocol: as §1

[11] = target: various enzymes (Homo sapiens, UniProt Q9UL54); conditions: compound 1 uM
Protocol: as §1

[12] = target: various enzymes (Homo sapiens, UniProt O43683); conditions: compound 1 uM
Protocol: as §1

[13] = target: various enzymes (Homo sapiens, UniProt Q9P289); conditions: compound 1 uM
Protocol: as §1

[14] = target: T2, various enzymes (Homo sapiens, UniProt O43283); conditions: compound 1 uM
T2 sequence (O43283 1-966): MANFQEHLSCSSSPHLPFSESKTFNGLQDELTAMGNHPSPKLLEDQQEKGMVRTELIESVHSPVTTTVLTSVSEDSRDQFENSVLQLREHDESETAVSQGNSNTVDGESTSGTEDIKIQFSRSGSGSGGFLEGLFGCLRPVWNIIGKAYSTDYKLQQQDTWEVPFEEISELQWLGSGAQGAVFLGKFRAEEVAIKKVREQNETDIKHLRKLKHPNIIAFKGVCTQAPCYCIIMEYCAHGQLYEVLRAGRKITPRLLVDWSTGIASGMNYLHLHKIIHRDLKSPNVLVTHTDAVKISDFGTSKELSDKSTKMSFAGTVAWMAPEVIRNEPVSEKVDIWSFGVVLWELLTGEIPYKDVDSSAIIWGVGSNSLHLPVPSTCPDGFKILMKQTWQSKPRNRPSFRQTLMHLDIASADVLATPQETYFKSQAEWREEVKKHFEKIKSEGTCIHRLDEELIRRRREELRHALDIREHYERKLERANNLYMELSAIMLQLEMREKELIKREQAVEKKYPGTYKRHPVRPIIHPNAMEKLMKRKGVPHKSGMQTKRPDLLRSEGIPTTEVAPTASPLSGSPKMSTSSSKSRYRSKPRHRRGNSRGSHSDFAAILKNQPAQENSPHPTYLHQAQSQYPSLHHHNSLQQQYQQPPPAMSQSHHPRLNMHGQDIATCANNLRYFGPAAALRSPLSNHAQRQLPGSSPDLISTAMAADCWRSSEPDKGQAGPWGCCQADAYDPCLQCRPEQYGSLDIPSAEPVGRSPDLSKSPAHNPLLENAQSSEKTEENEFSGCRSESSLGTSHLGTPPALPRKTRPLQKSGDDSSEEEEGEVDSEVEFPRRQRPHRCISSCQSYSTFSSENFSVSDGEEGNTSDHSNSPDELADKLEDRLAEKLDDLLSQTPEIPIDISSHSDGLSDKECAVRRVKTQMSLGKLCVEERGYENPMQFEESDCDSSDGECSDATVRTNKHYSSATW
Protocol: as §1

[15] = target: various enzymes (Homo sapiens, UniProt Q9UIK4); conditions: compound 1 uM
Protocol: as §1

[16] = target: various enzymes (Homo sapiens, UniProt Q9Y463); conditions: compound 1 uM
Protocol: as §1

[17] = target: various enzymes (Plasmodium falciparum, UniProt P61075)
Protocol: as §1

[18] = target: various enzymes (Homo sapiens, UniProt Q6ZWH5); conditions: compound 1 uM
Protocol: as §1

[19] = target: various enzymes (Homo sapiens, UniProt Q16539); conditions: compound 1 uM
Protocol: as §1

[20] = target: various enzymes (Homo sapiens, UniProt Q8TD08); conditions: compound 1 uM
Protocol: as §1

[21] = target: various enzymes (Homo sapiens, UniProt Q06187); conditions: compound 1 uM
Protocol: as §1

Sequence of various enzymes (Homo sapiens, UniProt P11802) (P11802 whole entry): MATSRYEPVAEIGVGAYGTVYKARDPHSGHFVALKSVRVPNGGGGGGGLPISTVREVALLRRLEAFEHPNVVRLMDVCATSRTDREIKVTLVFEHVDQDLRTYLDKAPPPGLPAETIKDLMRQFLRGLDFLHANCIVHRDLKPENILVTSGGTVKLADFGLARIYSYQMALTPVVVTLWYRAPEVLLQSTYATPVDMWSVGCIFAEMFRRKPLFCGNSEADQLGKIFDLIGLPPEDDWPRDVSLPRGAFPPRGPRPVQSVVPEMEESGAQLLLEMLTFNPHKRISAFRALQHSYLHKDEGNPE
Sequence of various enzymes (Homo sapiens, UniProt Q6ZWH5) (Q6ZWH5 whole entry): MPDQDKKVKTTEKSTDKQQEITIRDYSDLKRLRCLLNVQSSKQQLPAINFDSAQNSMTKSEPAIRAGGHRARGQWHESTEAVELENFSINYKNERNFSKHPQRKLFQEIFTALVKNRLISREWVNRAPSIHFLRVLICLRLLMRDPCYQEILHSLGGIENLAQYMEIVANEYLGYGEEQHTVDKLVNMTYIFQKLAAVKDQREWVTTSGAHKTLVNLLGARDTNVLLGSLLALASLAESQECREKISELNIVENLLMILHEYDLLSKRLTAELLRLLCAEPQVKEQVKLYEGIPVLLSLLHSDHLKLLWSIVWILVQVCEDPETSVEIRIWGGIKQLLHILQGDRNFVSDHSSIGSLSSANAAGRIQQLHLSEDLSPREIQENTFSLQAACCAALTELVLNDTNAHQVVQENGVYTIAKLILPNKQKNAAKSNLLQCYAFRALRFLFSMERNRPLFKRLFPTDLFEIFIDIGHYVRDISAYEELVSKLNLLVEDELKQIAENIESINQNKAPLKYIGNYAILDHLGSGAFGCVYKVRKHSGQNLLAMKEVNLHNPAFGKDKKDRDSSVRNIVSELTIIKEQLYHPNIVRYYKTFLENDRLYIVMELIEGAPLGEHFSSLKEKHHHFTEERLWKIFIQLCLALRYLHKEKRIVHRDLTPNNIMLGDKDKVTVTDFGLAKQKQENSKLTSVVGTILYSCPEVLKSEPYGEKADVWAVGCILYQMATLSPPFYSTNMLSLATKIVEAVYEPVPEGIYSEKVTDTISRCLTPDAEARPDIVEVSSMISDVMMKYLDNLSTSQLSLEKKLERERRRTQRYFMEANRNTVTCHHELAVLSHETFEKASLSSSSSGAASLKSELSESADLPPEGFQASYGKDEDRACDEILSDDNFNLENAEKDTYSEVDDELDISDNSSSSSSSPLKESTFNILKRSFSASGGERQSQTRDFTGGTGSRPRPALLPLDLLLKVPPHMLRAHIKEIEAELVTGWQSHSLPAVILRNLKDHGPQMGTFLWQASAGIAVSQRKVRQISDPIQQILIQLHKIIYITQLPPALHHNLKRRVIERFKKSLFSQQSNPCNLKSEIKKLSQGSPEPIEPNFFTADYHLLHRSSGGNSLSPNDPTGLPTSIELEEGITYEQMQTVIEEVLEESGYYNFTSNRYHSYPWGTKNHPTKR
Sequence of various enzymes (Homo sapiens, UniProt Q9Y463) (Q9Y463 whole entry): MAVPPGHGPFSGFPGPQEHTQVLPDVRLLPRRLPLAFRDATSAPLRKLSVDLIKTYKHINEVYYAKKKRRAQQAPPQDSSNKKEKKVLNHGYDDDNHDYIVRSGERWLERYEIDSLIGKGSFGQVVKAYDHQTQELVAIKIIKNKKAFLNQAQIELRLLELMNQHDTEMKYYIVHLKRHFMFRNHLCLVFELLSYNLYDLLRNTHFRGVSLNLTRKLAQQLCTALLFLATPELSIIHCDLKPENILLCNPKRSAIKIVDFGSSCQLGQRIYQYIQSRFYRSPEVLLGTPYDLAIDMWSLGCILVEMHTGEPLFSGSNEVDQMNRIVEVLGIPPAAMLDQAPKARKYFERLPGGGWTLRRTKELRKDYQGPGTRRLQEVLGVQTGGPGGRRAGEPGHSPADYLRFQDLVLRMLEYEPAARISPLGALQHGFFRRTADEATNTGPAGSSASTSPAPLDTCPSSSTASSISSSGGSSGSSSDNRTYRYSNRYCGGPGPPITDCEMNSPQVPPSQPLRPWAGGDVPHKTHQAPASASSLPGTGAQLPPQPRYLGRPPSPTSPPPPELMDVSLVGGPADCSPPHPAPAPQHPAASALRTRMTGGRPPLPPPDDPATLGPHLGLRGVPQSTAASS
Sequence of various enzymes (Homo sapiens, UniProt P78368) (P78368 whole entry): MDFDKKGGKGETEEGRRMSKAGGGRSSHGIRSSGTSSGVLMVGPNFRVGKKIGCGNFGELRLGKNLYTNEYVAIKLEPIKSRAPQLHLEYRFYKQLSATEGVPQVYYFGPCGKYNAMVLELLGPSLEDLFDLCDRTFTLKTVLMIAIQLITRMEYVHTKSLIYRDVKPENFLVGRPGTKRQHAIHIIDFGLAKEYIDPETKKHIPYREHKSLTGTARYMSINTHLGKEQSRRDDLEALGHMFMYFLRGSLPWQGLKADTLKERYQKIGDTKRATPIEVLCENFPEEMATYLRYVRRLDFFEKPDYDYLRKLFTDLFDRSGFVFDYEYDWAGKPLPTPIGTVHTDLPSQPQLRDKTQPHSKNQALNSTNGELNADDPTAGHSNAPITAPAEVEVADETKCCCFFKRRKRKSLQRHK
Sequence of various enzymes (Plasmodium falciparum, UniProt P61075) (P61075 whole entry): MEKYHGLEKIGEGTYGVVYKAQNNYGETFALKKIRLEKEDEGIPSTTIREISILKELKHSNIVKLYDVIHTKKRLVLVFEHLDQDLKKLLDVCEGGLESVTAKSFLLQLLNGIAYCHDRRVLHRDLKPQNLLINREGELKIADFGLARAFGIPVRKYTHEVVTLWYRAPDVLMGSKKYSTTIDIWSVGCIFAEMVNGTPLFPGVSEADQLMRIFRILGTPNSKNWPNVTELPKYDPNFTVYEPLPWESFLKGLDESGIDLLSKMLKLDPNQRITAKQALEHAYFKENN
Sequence of various enzymes (Homo sapiens, UniProt Q9UL54) (Q9UL54 whole entry): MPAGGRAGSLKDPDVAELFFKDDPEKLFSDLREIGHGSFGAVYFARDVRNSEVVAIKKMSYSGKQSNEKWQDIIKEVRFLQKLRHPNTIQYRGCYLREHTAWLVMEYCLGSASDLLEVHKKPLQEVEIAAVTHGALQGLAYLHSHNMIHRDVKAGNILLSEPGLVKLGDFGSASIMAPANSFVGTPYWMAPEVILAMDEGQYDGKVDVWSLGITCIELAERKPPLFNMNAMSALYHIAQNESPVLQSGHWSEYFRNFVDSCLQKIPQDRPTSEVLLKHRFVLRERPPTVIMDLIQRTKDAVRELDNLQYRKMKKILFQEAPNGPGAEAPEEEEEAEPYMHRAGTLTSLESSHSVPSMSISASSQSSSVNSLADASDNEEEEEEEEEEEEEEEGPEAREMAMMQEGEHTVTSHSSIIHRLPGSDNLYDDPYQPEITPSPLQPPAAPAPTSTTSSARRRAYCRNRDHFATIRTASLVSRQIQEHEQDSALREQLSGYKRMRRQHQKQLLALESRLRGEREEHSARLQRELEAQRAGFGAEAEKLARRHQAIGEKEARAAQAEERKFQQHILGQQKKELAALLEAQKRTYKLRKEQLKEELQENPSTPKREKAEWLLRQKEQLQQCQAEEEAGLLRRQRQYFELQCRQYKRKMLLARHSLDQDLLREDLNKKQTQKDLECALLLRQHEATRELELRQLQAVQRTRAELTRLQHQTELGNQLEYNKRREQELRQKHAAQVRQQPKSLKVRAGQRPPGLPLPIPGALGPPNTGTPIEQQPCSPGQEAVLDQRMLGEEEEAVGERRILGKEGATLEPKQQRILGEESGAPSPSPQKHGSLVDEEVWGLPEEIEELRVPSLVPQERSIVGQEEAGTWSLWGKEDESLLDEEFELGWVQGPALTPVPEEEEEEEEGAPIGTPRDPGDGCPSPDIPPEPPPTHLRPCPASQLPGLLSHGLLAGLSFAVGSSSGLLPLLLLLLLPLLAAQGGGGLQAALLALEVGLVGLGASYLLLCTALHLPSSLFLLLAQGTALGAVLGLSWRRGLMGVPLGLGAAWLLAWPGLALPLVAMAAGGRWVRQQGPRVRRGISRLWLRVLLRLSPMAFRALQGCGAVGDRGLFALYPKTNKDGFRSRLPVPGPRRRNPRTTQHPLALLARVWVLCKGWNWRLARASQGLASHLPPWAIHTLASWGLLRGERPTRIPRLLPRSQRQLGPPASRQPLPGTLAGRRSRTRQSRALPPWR
Sequence of various enzymes (Homo sapiens, UniProt Q9P289) (Q9P289 whole entry): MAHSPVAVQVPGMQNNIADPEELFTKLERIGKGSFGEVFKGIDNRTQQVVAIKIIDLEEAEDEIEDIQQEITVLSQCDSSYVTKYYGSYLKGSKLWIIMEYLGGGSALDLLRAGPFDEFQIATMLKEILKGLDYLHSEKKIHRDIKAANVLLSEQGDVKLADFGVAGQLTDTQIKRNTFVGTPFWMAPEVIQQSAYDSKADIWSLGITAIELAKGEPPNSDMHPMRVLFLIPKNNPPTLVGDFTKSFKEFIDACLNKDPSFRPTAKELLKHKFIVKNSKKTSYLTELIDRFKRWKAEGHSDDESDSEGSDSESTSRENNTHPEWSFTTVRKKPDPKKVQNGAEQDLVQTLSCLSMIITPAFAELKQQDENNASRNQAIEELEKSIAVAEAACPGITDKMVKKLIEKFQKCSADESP
Sequence of various enzymes (Homo sapiens, UniProt Q16539) (Q16539 whole entry): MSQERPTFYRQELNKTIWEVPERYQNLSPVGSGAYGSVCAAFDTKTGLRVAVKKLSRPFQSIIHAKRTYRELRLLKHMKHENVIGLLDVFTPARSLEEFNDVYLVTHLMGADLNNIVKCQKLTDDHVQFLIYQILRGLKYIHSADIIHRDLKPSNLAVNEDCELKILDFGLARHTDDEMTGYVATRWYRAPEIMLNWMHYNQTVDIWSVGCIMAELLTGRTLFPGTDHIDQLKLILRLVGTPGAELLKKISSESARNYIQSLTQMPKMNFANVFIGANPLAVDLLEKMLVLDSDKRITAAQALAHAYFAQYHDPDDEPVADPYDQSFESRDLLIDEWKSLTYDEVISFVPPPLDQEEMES

CC(C)N1Cc2nn(C)cc2-c2cnc3[nH]cc(c3c2)-c2cn(nc2C(F)(F)F)CCCC1=O [Compound 45, (Z)-5-isopropyl-31-methyl-13-(trifluoromethyl)-11H,21H,31H-5-aza-2(3,5)-pyrrolo[2,3-b]pyridina-1(4,1),3(4,3)-dipyrazolacyclononaphan-6-one]
Ambit profiling: PCTK3 [1]: 30 | Ambit profiling: IRAK4 [2]: 39 | Ambit profiling: YANK2 [3]: 100 | Ambit profiling: EGFR(L858R) ([4]; compound 1 uM): 25 | Ambit profiling: CDK4 [5]: 100 | Ambit profiling: CDK4-cyclinD1 [5]: 53 | Ambit profiling: CDK4-cyclinD3 [5]: 100 | Ambit profiling: FES [6]: 74 | Ambit profiling: MAP4K5 [7]: 1.2 | Ambit profiling: CSNK1G2 [8]: 100 | Ambit profiling: AMPK-alpha1 [9]: 50 | Ambit profiling: EGFR(G719C) ([10]; compound 1 uM): 59 | Ambit profiling: TAOK2 [11]: 28 | Ambit profiling: BUB1 [12]: 81 | Ambit profiling: MST4 [13]: 24 | Ambit profiling: LZK [14]: 42 | Ambit profiling: DAPK2 [15]: 100 | Ambit profiling: DYRK18 [16]: 0.55 | Ambit profiling: PFPK5(P. falciparum) ([17]; compound 1 uM): 82 | Ambit profiling: NEK10 [18]: 97 | Ambit profiling: p38-alpha [19]: 86 | Ambit profiling: ERK8 [20]: 6.1 | Ambit profiling: BTK [21]: 55

COc1c2c(nn1C)CN(C(C)C)C(=O)CCCn1cc(c(C(F)(F)F)n1)-c1c[nH]c3ncc-2cc13 [Compound 50, (Z)-5-isopropyl-35-methoxy-31-methyl-13-(trifluoromethyl)-11H,21H,31H-5-aza-2(3,5)-pyrrolo[2,3-b]pyridina-1(4,1),3(4,3)-dipyrazolacyclononaphan-6-one]
Ambit profiling: PCTK3 [1]: 69 | Ambit profiling: IRAK4 [2]: 20 | Ambit profiling: YANK2 [3]: 45 | Ambit profiling: EGFR(L858R) [4]: 18 | Ambit profiling: CDK4 [5]: 88 | Ambit profiling: CDK4-cyclinD1 [5]: 76 | Ambit profiling: CDK4-cyclinD3 [5]: 81 | Ambit profiling: FES [6]: 31 | Ambit profiling: MAP4K5 [7]: 4.1 | Ambit profiling: CSNK1G2 [8]: 83 | Ambit profiling: AMPK-alpha1 [9]: 90 | Ambit profiling: EGFR(G719C) [10]: 51 | Ambit profiling: TAOK2 [11]: 69 | Ambit profiling: BUB1 [12]: 35 | Ambit profiling: MST4 [13]: 60 | Ambit profiling: LZK [14]: 68 | Ambit profiling: DAPK2 [15]: 67 | Ambit profiling: DYRK1B [16]: 5.2 | Ambit profiling: PFPK5(P. falciparum) [17]: 79 | Ambit profiling: NEK10 [18]: 87 | Ambit profiling: p38-alpha [19]: 81 | Ambit profiling: ERK8 [20]: 18 | Ambit profiling: BTK [21]: 56
